Reference: US6046219A, “Method for the treatment of conditions mediated by collagen formation together with cell proliferation by application of inhibitors of protein hydroxylation” (Cornell Research Foundation, Inc., priority 1997, dated 2000)
Entries after “also recorded” stand apart in the source; their conditions may differ. Each block holds one compound with its values, some of them ahead of it.

Assays:
[1] = target: T1, purified human prolyl 4-hydroxylase (Homo sapiens, UniProt P13674); assay: Assay of purified human prolyl 4-hydroxylase (14CO2 release from 2-oxoglutarate, cell-free); type: biochemical; conditions: for Prolyl 4-hydroxylase ID50 (purified): purified human enzyme, inhibitory dose that gives 50% reduction of the enzyme-mediated reaction, unit assumed
T1 construct: made in house; host or cells: Spodoptera frugiperda insect cells (baculovirus, co-expression of α- and β-subunits)
T1 sequence (P13674 18-534): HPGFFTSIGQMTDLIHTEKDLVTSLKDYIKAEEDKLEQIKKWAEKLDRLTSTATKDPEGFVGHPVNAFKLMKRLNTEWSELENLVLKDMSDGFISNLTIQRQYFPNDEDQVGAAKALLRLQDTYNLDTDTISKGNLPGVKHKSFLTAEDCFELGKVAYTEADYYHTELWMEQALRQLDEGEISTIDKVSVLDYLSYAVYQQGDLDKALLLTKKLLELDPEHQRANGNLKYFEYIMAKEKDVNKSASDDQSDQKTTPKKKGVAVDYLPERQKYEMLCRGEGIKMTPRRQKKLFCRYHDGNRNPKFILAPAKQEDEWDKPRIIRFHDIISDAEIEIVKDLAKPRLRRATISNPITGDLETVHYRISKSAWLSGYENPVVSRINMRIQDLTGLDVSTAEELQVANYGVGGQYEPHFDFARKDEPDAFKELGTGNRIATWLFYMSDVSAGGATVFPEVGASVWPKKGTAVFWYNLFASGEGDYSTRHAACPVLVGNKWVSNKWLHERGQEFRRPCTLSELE
T1 sequence (P07237 18-508 partner): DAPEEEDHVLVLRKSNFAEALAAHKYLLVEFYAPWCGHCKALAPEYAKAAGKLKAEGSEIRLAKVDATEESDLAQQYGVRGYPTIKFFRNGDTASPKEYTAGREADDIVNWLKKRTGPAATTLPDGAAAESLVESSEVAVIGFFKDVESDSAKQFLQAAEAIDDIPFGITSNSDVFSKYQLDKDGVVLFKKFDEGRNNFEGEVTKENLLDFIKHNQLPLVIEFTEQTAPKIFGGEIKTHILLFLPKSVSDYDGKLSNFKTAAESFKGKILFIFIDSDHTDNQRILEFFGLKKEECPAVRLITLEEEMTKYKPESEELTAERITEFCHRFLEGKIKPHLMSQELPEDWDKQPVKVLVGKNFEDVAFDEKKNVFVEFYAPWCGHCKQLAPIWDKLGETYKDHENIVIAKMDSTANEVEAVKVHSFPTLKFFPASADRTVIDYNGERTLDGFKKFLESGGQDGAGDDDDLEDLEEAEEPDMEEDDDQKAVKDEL
Experimental: The effect on the enzyme was determined in a cell-free system by measuring the oxidative decarboxylation of its cofactor 2-oxoglutarate via release of radiolabeled carbon dioxide in a standard reaction mixture also containing ascorbate, ferrous sulfate, and unhydroxylated peptide substrate.
(§1) The inhibitory action of the substances according to the invention, for example on collagen secretion or cell proliferation, can be tested in direct assays of the enzymes mediating the pivotal protein hydroxylations for these biological processes, such as prolyl 4-hydroxylase and deoxyhypusyl hydroxylase. This entails the enzymatic hydroxylation of the appropriate protein precursor, either by the cellular or the purified enzyme, in the presence or absence of compounds of Formulae (I) or (II), with concomitant determination of co-substrate utilization by these enzymes or subsequent isolation of the hydroxylated amino acid and its unhydroxylated precursor. In this manner, the inhibitory potency of any given compound can be measured in the cell-free system, in cell culture, or in tissue, and is expressed as the inhibitory dose that gives a 50% reduction of the enzyme-mediated reaction (ID50). Enzyme is tested in analogy to the method of A. Abbruzzese, H. M. Hanauske-Abel, et al., Biochem. Biophys. Acta, 1077, 159-166 (1991) and of K. Majamaa, H. M. Hanauske-Abel, et al., Eur. J. Biochem. 138, 239-245 (1984), which are hereby incorporated by reference. Table III lists the ID50 values of some of the compounds according to the invention, using purified human prolyl 4-hydroxylase and cellular human deoxyhypusyl hydroxylase as representative protein hydroxylases.
The inhibiting effect of hydroxypyridones on the collagen-hydroxylating enzyme was studied in a cell-free system.
Assay of purified human prolyl 4-hydroxylase
The native α2 β2 -tetrameric enzyme was purified to homogeneity by poly(L-proline) affinity chromatography and DEAE chromatography from the supernatant of Spodoptera frugiperda insect cells cotransfected with recombinant baculovirus transfer vectors for both the human α- and β-subunits. Enzyme activity was determined by trapping of ^14 CO2 released from 2-oxo[1-^14 C][glutarate] according to the procedure of Majamaa, et al., Eur. J. Biochem., 138:239-245 (1984), which is hereby incorporated by reference. Briefly, all incubations were run for 60 minutes at 37° C. in a final volume of 1.0 ml per test sample, containing 0.1 μg enzyme, 0.1 mg heat-denatured (Pro-Pro-Gly)10 ×9 H2 O as hydroxylatable substrate, 0.1 mM 2-oxo[1-^14 C][glutarate] adjusted to 60,000 dpm by mixing with the unlabeled 2-oxoglutarate as cosubstrate, and cofactors (1.6 mM ascorbate, 0.05 mM ferrous sulfate, 0.08 mM dithiothreitol, 2 mg bovine serum albumin, 5 μL catalase). Assays are performed with only one of the active compounds at any given time.

[2] = orally active; established characteristics; cited from earlier work
[3] = tested on: human umbilical vein endothelial cells (HUVEC); assay: Endothelial cell proliferation (tritiated thymidine incorporation); type: cell-based; conditions: 24 hours
Experimental: Human umbilical vein endothelial cells ("HUVEC") were treated with the specified concentrations of deferiprone (X-axis) for 24 hours prior to evaluating tritiated thymidine (3H-Tdr) incorporation into DNA for 4 hours. The results are expressed per well and the bars at each point reflect the standard error of the mean (S.E.M., n=3). Decreasing 3H-Tdr incorporation would reflect reduced endothelial cells proliferation.
Endothelial cell proliferation was determined by essentially the same methods previously disclosed for the determination of smooth muscle proliferation. Human umbilical vein endothelial cells ("HUVEC") were isolated and subcultured in Medium 199 containing 15% fetal bovine serum ("FBS"), endothelial cell growth factor ("ECGF", 5 ng/ml), heparin (9 μg/ml), and antibiotics. The cells were plated in 96-well dishes at 1×10^4 cells per well and then allowed to attach for 24 hours. The medium was removed, and the cells were changed to media containing deferiprone at 50, 100, 200, or 500 μM. After 24 hours, tritiated thymidine was added to the wells and allowed to incorporate into the DNA for 4 hours prior to isolation of the nuclear DNA by standard methods. The results are expressed as the counts per minute ("cpm") of radioactivity per well, which is proportional to the rate of DNA synthesis during the 4 hour labelling period.

HUVEC = assay: Endothelial cell tube formation on Matrigel; type: cell-based, human; conditions: 24 hours
Experimental: HUVEC form tubes when plated on Matrigel and this is a commonly used as an in vitro model of capillary formation. In the FIG. 10A, it is shown that untreated HUVEC form capillary-like tubes (ARROW) when placed on Matrigel for 24 hours.
Endothelial cell tube formation was determined by plating HUVEC on a thick Matrigel (Becton Dickinson Labware) gel at a density of 5×10^4 cells per well of 24 well dish. Deferiprone was incubated with the cells for 30 minutes in solution prior to applying the cells to the Matrigel. The cells were added to the Matrigel-coated well, and, then 4 hours and 24 hours later, the cells were observed and photographed at a reproducible location.

[4] = target: T2, cellular human deoxyhypusyl hydroxylase (Homo sapiens, UniProt Q9BU89); assay: Cellular human deoxyhypusyl hydroxylase (DOHH assay, 3H-spermidine labeling); type: cell-based; conditions: for Deoxyhypusyl hydroxylase ID50 (cellular): cellular human enzyme, inhibitory dose that gives 50% reduction of the enzyme-mediated reaction, unit assumed
T2 construct: endogenous in cells; host or cells: cultured human cells (smooth muscle cells, B-lymphocytes)
T2 sequence (Q9BU89 1-302): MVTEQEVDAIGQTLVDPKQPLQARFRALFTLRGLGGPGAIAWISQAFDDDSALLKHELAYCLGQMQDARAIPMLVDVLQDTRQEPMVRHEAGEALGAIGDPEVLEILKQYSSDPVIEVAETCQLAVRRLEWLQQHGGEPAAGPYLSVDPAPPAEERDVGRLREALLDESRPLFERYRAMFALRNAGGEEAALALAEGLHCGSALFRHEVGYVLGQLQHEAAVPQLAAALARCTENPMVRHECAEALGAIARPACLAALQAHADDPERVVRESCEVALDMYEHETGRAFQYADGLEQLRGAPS
Excerpt: as §1
The inhibiting effect of hydroxypyridones on the eIF-5A-hydroxylating enzyme was studied in cultured human cells (i.e. smooth muscle cells, B-lymphocytes).
The cellular conversion of the precursor deoxyhypusine to the hydroxylated hypusine in cells was examined, after preincubation with the inhibitor for 60 minutes, by labeling the human cells with ^3 H-spermidine (5 μCi/ml) in 25 cm^2 flasks (1×10^6 cells/flask) for 24 hours prior to cell lysis, precipitation with 10% TCA containing 1 mM each of putrescine, spermidine, and spermine, and hydrolysis in 6 N HCl at 110° C. for 16 hours. The hydrolysate was analyzed for labeled amino acids on an amino acid analyzer by published methods (Park et al., J. Biol. Chem., 257:7217-7222 (1982), which is hereby incorporated by reference). The retention of purified hypusine and deoxyhypusine was determined from standards.

[5] = tested on: human SMC from fibroproliferative vascular lesions; assay: Cell proliferation: DNA synthesis (3H-thymidine) in SMC; type: cell-based
Experimental: The effect of the structural hydroxypyridone analog kojic acid is shown for comparison. Serum-stimulated DNA synthesis in SMC was determined by a 4-hour pulse of ^3 H-thymidine given 20 hours after treatment with L-mimosine and kojic acid (filled symbols). Identically treated, but unlabeled cells cultured in parallel, at that time point were washed and returned to fresh culture media without inhibitor for an additional 20 hours prior to otherwise identical labeling with ^3 H-thymidine (open symbols). Data is expressed as ^3 H-thymidine incorporated per cell to compensate for the reduced cell number in the wake of inhibitor treatment.
Inhibition of DNA synthesis was examined by semiautomated methods. SMC were plated at 1×10^4 cells/well in 96-well microtiter plates at least 24 hours prior to the assay. Agents were introduced into normal serum-containing growth media for 20 hours before the cells were pulsed with ^3 H-thymidine (1 μCi/ml) for 4 hours. Cells were collected with a cell harvester and the DNA-incorporated label determined by scintillation counting (Betaplate; Wallac, Inc., Gaithersburg, Md.) (n=6 per point).

[6] = target: T3, purified rat deoxyhypusyl hydroxylase (Rattus norvegicus, UniProt Q5PPJ4); assay: DOHH assay, purified rat deoxyhypusyl hydroxylase, conversion of deoxyhypusine-containing eIF-5A precursor; type: biochemical; conditions: unhydroxylated eIF-5A precursor, purified rat enzyme
T3 construct: probably testis; substrate unhydroxylated eIF-5A precursor
T3 sequence (Q5PPJ4 1-302): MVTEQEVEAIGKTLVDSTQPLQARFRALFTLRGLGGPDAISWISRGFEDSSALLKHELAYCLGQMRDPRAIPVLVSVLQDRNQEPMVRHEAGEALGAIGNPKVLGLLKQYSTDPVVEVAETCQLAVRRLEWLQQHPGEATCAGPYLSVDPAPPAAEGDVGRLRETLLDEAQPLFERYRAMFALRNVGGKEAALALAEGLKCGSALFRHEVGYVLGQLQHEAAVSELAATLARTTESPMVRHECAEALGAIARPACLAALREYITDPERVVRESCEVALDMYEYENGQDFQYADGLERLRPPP
Experimental: The inhibiting effect of a model peptidomimetic, suitable to serve as carrier for hydroxypyridone warheads, on the activity of the purified eIF-5A-hydroxylating enzyme was studied in a cell-free system.
Enzyme activity was purified and determined as described by Abbruzzese et al., J. Biol. Chem. 261:3085-9 (1986), which is hereby incorporated by reference. Briefly, the enzyme is offered labeled deoxyhypusine-containingeIF-5A precursor. Following standard incubation conditions, the conversion into hypusine residues is measured by chromatographic amino acid separation after protein hydrolysis.

protein hydroxylases = assay: Inhibition of protein hydroxylases; type: biochemical; conditions: no data shown
prolyl hydroxylase = conditions: U.S. Pat. No. 4,937,266; cited from earlier work
certain human cells = conditions: Ekblom et al.; cited from earlier work

SMILES: CCOC(=O)[C@@H](N)Cn1ccc(=O)c(O)c1 [--ethyl ester]
Prolyl 4-hydroxylase ID50 (purified) [1]: 145 µM

SMILES: CCc1c(O)c(=O)ccn1CC [HK-2]
Prolyl 4-hydroxylase ID50 (purified) [1]: 145 µM
Deoxyhypusyl hydroxylase ID50 (cellular) [4]: 50 µM

SMILES: NC(CO)C1CCC(=O)NC(CO)C(=O)N(C(Cc2ccccc2)C(=O)O)NC1=O (stereo not drawn) [Mimetic A]
deoxyhypusine-to-hypusine conversion / inhibition of purified deoxyhypusyl hydroxylase [6]: only weakly inhibitory
deoxyhypusine-to-hypusine conversion / inhibition of purified deoxyhypusyl hydroxylase ([6]; listed as mimetic A): suppressed

SMILES: O=c1cc(CO)occ1O [kojic acid, reference compound]
inhibition of endothelial cell proliferation ([3]; FIG. 9): does not inhibit EC proliferation
inhibition of protein hydroxylases (protein hydroxylases): does not inhibit protein hydroxylases

SMILES: CC(C)(CO)[C@@H](O)C(=O)NCCC(=O)NCCSSCCNC(=O)CCNC(=O)[C@H](O)C(C)(C)CO [pantethine]
effect on increased prolyl hydroxylase activity in liver with hepatic fibrosis (prolyl hydroxylase): inhibited an increased prolyl hydroxylase activity

SMILES: Cc1ncc(CO)c(C=NNC(=O)c2ccncc2)c1O [pyridoxal isonicotinyl hydrazone]
effect on proliferation of certain human cells (certain human cells): stimulates the proliferation

Continued, in another order:

inhibition of purified human prolyl 4-hydroxylase ([1]; cell-free system, FIG. 1): directly inhibit
Prolyl 4-hydroxylase ID50 (purified) [1]: 133 µM
inhibition of deoxyhypusyl hydroxylase ([4]; FIG. 3, assayed in vitro): directly inhibit
Deoxyhypusyl hydroxylase ID50 (cellular) [4]: 90 µM
SMILES: Cc1c(O)c(=O)ccn1C [HK-1, 1,2-dimethyl-3-hydroxypyrid-4-one]
extraction by the liver from the portal blood [2]: rapidly extracted by the liver from the portal blood
inhibition of endothelial cell proliferation ([3]; FIG. 9, listed as deferiprone): blocks the proliferation; also recorded: inhibit endothelial cell proliferation
appearance / viability of treated HUVEC on Matrigel (HUVEC; FIG. 10B): remain healthy and viable in appearance
formation of capillary-like tubes on Matrigel (HUVEC; HUVEC, FIG. 10, listed as deferiprone): blocks the formation of tubular structures; also recorded: block the formation of capillary-like structures; also recorded: blocks capillary formation; also recorded: attach and spread, but do not form capillary-like tubes
non-specific or toxic effects ([5]; FIGS. 6, 7): did not result from non-specific or toxic effects
reversibility of suppressive effects (collagen secretion, onset of DNA synthesis) ([5]; upon removal of compound): reversible

Prolyl 4-hydroxylase ID50 (purified) [1]: 210 µM
Deoxyhypusyl hydroxylase ID50 (cellular) [4]: 60 µM
SMILES: CCOCn1ccc(=O)c(O)c1C [HK-15]

Prolyl 4-hydroxylase ID50 (purified) [1]: 150 µM
Deoxyhypusyl hydroxylase ID50 (cellular) [4]: 50 µM
SMILES: C=CCn1ccc(=O)c(O)c1C [HK-16]

Prolyl 4-hydroxylase ID50 (purified) [1]: 130 µM
Deoxyhypusyl hydroxylase ID50 (cellular) [4]: 58 µM
SMILES: CCn1ccc(=O)c(O)c1C [HK-26]

Prolyl 4-hydroxylase ID50 (purified) [1]: 155 µM
Deoxyhypusyl hydroxylase ID50 (cellular) [4]: 50 µM
SMILES: CCCn1ccc(=O)c(O)c1C [HK-27]
